According to PubChem BioAssay (NCI):
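The compound was tested at five concentrations on cells cultured in 96-well plates, with a 48-hour exposure period. GI50: concentration for 50% inhibition of growth. The concentration for full growth arrest is given as TGI.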

How the values were obtained:
Experiment in all cases: NCI anticancer screen, dose series, 48 h
[1] = test system: NCI-H226 lung
[2] = test system: T-47D breast
[3] = test system: SF-539 CNS
[4] = test system: COLO 205 colon
[5] = test system: MDA-MB-435
[6] = test system: BT-549 breast
[7] = test system: NCI-H522 lung
[8] = test system: SW-620 colon
[9] = test system: SK-MEL-28 melanoma
[10] = test system: RPMI-8226 leukemia
[11] = test system: SN12C renal
[12] = test system: SNB-75 CNS
[13] = test system: OVCAR-5 ovarian
[14] = test system: LOX IMVI melanoma
[15] = test system: HOP-92 NSCLC
[16] = test system: UACC-62 melanoma
[17] = test system: KM12 colon
[18] = test system: EKVX NSCLC
[19] = test system: HL-60(TB) leukemia
[20] = test system: OVCAR-4 ovarian
[21] = test system: SR leukemia
[22] = test system: TK-10 renal
[23] = test system: MDA-MB-231 breast
[24] = test system: CAKI-1 renal
[25] = test system: HOP-62 NSCLC
[26] = test system: NCI-H460 lung
[27] = test system: SK-MEL-2 melanoma
[28] = test system: RXF 393 renal
[29] = test system: 786-0 renal
[30] = test system: SK-OV-3 ovarian
[31] = test system: SF-268 CNS
[32] = test system: A498 renal
[33] = test system: MCF7 breast
[34] = test system: HCT-15 colon
[35] = test system: HT29 colon
[36] = test system: OVCAR-8 ovarian
[37] = test system: IGROV1 ovarian
[38] = test system: M14 melanoma
[39] = test system: K-562 leukemia
[40] = test system: HS 578T breast
[41] = test system: DU-145 prostate
[42] = test system: CCRF-CEM leukemia
[43] = test system: HCT-116 colon
[44] = test system: NCI/ADR-RES ovarian
[45] = test system: A549 NSCLC
[46] = test system: MOLT-4 leukemia
[47] = test system: UACC-257 melanoma
[48] = test system: SK-MEL-5 melanoma
[49] = test system: SNB-19 CNS
[50] = test system: ACHN renal
[51] = test system: U251 CNS
[52] = test system: HCC-2998 colon
[53] = test system: UO-31 renal
[54] = test system: SF-295 CNS
[55] = test system: NCI-H23 lung
[56] = test system: PC-3 prostate
[57] = test system: OVCAR-3 ovarian
[58] = test system: MALME-3M melanoma

Compound Cc1cc(C(NC(=O)CCCCCNc2cccc3c2C(=O)N(C2CCC(=O)NC2=O)C3=O)c2cccnc2)c(O)c2ncccc12 (centres undefined) has a GI50 [1] of 32.4 nM, a TGI [1] of 961 nM and a GI50 [2] of 10.3 nM. The TGI [2] was 5120 nM, the GI50 [3] was 933 nM and the TGI [3] was 8950 nM. It also gave a GI50 [4] of 28.8 nM, a TGI [4] of 1670 nM and a GI50 [5] of 2350 nM. For the same compound, the TGI [5] was > 100000 nM, the GI50 [6] was < 12.8 nM and the TGI [6] was 39.2 nM. The GI50 [7] was 639 nM, the GI50 [8] was 21 nM and the TGI [8] was > 100000 nM. The GI50 [9] was 904 nM, the TGI [9] was > 74900 nM and the GI50 [10] was 1350 nM. The TGI [10] was > 100000 nM, the GI50 [11] was 50.1 nM and the GI50 [12] was 20.8 nM. The TGI [12] was 5320 nM, the GI50 [13] was 637 nM and the TGI [13] was > 100000 nM. For the same compound, the GI50 [14] was 856 nM, the TGI [14] was 12400 nM and the GI50 [15] was < 12.1 nM. It also gave a TGI [15] of 304 nM, a GI50 [16] of 1810 nM and a TGI [16] of 6350 nM. It also gave a GI50 [17] of 199 nM, a TGI [17] of 21300 nM and a GI50 [18] of 809 nM. For the same compound, the TGI [18] was > 22500 nM, the GI50 [19] was < 13.4 nM and the TGI [19] was 35.5 nM. The GI50 [20] was 22.1 nM, the TGI [20] was 325 nM and the GI50 [21] was 433 nM. For the same compound, the TGI [21] was > 54200 nM, the GI50 [22] was 413 nM and the TGI [22] was > 100000 nM. The GI50 [23] was 13.6 nM, the TGI [23] was 193 nM and the GI50 [24] was 471 nM. It also gave a TGI [24] of 16700 nM, a GI50 [25] of 21.4 nM and a TGI [25] of 685 nM. It also gave a GI50 [26] of 1510 nM, a TGI [26] of 28100 nM and a GI50 [27] of 485 nM. The TGI [27] was 11400 nM, the GI50 [28] was 221 nM and the TGI [28] was 2280 nM. It also gave a GI50 [29] of 164 nM, a TGI [29] of 14700 nM and a GI50 [30] of 222 nM. It also gave a TGI [30] of 3920 nM, a GI50 [31] of 112 nM and a TGI [31] of 18800 nM. For the same compound, the GI50 [32] was 202 nM, the TGI [32] was 6520 nM and the GI50 [33] was 62.5 nM. For the same compound, the TGI [33] was 14000 nM, the GI50 [34] was 228 nM and the TGI [34] was > 100000 nM. The GI50 [35] was 446 nM, the TGI [35] was > 100000 nM and the GI50 [36] was < 16.3 nM. It also gave a TGI [36] of 8330 nM, a GI50 [37] of 27.2 nM and a TGI [37] of 3800 nM. The GI50 [38] was 100 nM, the TGI [38] was 4990 nM and the GI50 [39] was 1210 nM. The TGI [39] was > 100000 nM, the GI50 [40] was 18.4 nM and the TGI [40] was 7090 nM. The GI50 [41] was 1920 nM, the TGI [41] was > 100000 nM and the GI50 [42] was < 10 nM. The TGI [42] was > 100000 nM, the GI50 [43] was 1520 nM and the TGI [43] was > 100000 nM. For the same compound, the GI50 [44] was 13400 nM, the TGI [44] was > 100000 nM and the GI50 [45] was 734 nM. For the same compound, the TGI [45] was 28000 nM, the GI50 [46] was < 10 nM and the TGI [46] was 156 nM. For the same compound, the GI50 [47] was 2090 nM, the TGI [47] was > 27600 nM and the GI50 [48] was 52.5 nM. For the same compound, the TGI [48] was 999 nM, the GI50 [49] was 273 nM and the TGI [49] was > 100000 nM. For the same compound, the GI50 [50] was 3580 nM, the TGI [50] was > 59500 nM and the GI50 [51] was 641 nM. For the same compound, the TGI [51] was > 100000 nM, the GI50 [52] was 26.4 nM and the TGI [52] was 2450 nM. The GI50 [53] was 362 nM, the TGI [53] was 34400 nM and the GI50 [54] was 291 nM. For the same compound, the TGI [54] was 8140 nM, the GI50 [55] was 1800 nM and the TGI [55] was 43800 nM. For the same compound, the GI50 [56] was 20.7 nM, the GI50 [57] was 252 nM and the TGI [57] was 15600 nM. The GI50 [58] was < 10 nM and the TGI [58] was 22.4 nM.

Cc1nn(-c2ccccc2)c2ncnc(N/N=C/c3ccccc3O)c12 gave a GI50 [1] of 2550 nM, a TGI [1] of 8590 nM and a GI50 [2] of 1920 nM. The TGI [2] was 13700 nM, the GI50 [3] was 396 nM and the TGI [3] was 7130 nM. It also gave a GI50 [4] of 385 nM, a TGI [4] of 22900 nM and a GI50 [5] of 544 nM. The TGI [5] was > 100000 nM, the GI50 [6] was 996 nM and the TGI [6] was 41900 nM. For the same compound, the GI50 [7] was 416 nM, the TGI [7] was 44900 nM and the GI50 [8] was 537 nM. The TGI [8] was > 96000 nM, the GI50 [9] was 481 nM and the TGI [9] was > 100000 nM. The GI50 [10] was 394 nM, the TGI [10] was 33200 nM and the GI50 [11] was 520 nM. The TGI [11] was > 49600 nM, the GI50 [12] was 267 nM and the TGI [12] was 2990 nM. The GI50 [13] was 3850 nM, the TGI [13] was > 100000 nM and the GI50 [14] was 317 nM. For the same compound, the TGI [14] was 5730 nM, the GI50 [15] was 455 nM and the TGI [15] was 6750 nM. For the same compound, the GI50 [16] was 2010 nM, the TGI [16] was 12100 nM and the GI50 [17] was 382 nM. For the same compound, the TGI [17] was > 100000 nM, the GI50 [18] was 391 nM and the TGI [18] was > 43300 nM. For the same compound, the GI50 [19] was 370 nM, the TGI [19] was > 100000 nM and the GI50 [20] was 303 nM. The TGI [20] was > 54300 nM, the GI50 [21] was 232 nM and the TGI [21] was > 100000 nM. The GI50 [22] was 2970 nM, the TGI [22] was > 70600 nM and the GI50 [23] was 529 nM. For the same compound, the TGI [23] was 53300 nM, the GI50 [24] was 943 nM and the TGI [24] was 8860 nM. It also gave a GI50 [25] of 288 nM, a TGI [25] of 6230 nM and a GI50 [26] of 382 nM. For the same compound, the TGI [26] was > 78400 nM, the GI50 [27] was 633 nM and the TGI [27] was 47100 nM. The GI50 [28] was 882 nM, the TGI [28] was 9110 nM and the GI50 [29] was 396 nM. It also gave a TGI [29] of 27700 nM, a GI50 [30] of 465 nM and a TGI [30] of 4720 nM. The GI50 [31] was 300 nM, the TGI [31] was > 100000 nM and the GI50 [32] was 2820 nM. It also gave a TGI [32] of 11200 nM, a GI50 [33] of 353 nM and a TGI [33] of 12500 nM. It also gave a GI50 [34] of 266 nM, a TGI [34] of 17500 nM and a GI50 [35] of 1120 nM. For the same compound, the TGI [35] was > 50000 nM, the GI50 [36] was 354 nM and the TGI [36] was > 100000 nM. It also gave a GI50 [37] of 597 nM, a TGI [37] of 16500 nM and a GI50 [38] of 270 nM. The TGI [38] was 1640 nM, the GI50 [39] was 397 nM and the TGI [39] was > 100000 nM. The GI50 [40] was 1830 nM, the TGI [40] was > 100000 nM and the GI50 [41] was 318 nM. For the same compound, the TGI [41] was > 100000 nM, the GI50 [42] was 140 nM and the TGI [42] was > 100000 nM. The GI50 [43] was 422 nM, the TGI [43] was 27300 nM and the GI50 [44] was 331 nM. For the same compound, the TGI [44] was 8540 nM, the GI50 [45] was 936 nM and the TGI [45] was > 41900 nM. For the same compound, the GI50 [46] was 280 nM, the TGI [46] was > 59000 nM and the GI50 [47] was 1810 nM. It also gave a TGI [47] of 31100 nM, a GI50 [48] of 621 nM and a TGI [48] of 4720 nM. The GI50 [49] was 507 nM, the TGI [49] was > 100000 nM and the GI50 [50] was 283 nM. For the same compound, the TGI [50] was 40400 nM, the GI50 [51] was 425 nM and the TGI [51] was > 49500 nM. For the same compound, the GI50 [52] was 793 nM, the TGI [52] was 35200 nM and the GI50 [53] was 325 nM. It also gave a TGI [53] of 2850 nM, a GI50 [54] of 407 nM and a TGI [54] of 11700 nM. The GI50 [55] was 509 nM, the TGI [55] was 25500 nM and the GI50 [56] was 345 nM. The TGI [56] was > 49700 nM, the GI50 [57] was 306 nM and the TGI [57] was 46300 nM. For the same compound, the GI50 [58] was 505 nM and the TGI [58] was 11800 nM.
